We go through 1 compound from patent publication US11926584B2, “Methods of making bempedoic acid and compositions of the same” (Esperion Therapeutics, Inc., priority 2019, dated 2024).

Series [1] can be described thus: Dynamic vapor sorption (water sorption) of the crystalline form. The class given is physicochemical. Conditions: relative humidity of 80%, temperature of 25° C., isotherm in FIG. 6. The method, then:
The crystalline form of the compound of formula (V) may also be characterized according to its water sorption properties. […] In certain embodiments, the crystalline form of the compound of formula (V) has a water sorption isotherm, when measured at 25° C., substantially the same as shown in FIG. 6.

Series [2] in a line: Thermogravimetric analysis (TGA) of the crystalline form. The class given is physicochemical. Conditions: heated at 10° C./minute from ambient (~25° C.) to about 315° C., open platinum pans. The method, then: Thermogravimetric analysis (TGA) data for the crystalline form of the compound of formula (V) were collected using a TA Discovery 550 TGA instrument. The TGA instrument was calibrated using a nickel reference standard. Samples of the crystalline form of the compound of formula (V) were placed in open platinum sample pans and heated at a rate of 10° C./minute from about ambient temperature (˜25° C.) to about 315° C.

With `CC(C)(CCCCCC(O)CCCCCC(C)(C)C(=O)O)C(=O)O` [compound of formula (V), 8-hydroxy-2,2,14,14-tetramethylpentadecanedioic acid], the “change in mass, as determined by dynamic vapor sorption” value in series [1] was “about 0.03%”. Moreover, the “weight loss in TGA curve” value in series [2] is “negligible weight loss prior to decomposition”.
